US10426785B2, “C-19 steroids for inhibiting neovascularization” (priority 2014, dated 2019)

How the values were obtained:
Type in all cases: cell-based, human
HUVEC cells [1] = assay: WST-1 proliferation assay of HUVEC cells; conditions: 1, 2 and 5 μM; all 3 HUVEC cell cultures; p<0.001 (t-test); FIG. 1A
Protocol: All experiments were additionally run in several replicates (one HUVEC in different passages as well as different preparations.
For determining the proliferation rates, WST-1 tests were performed. Essentially, 1000 HUVEC cells/well were seeded in a 96-well plate and exposed to the indicated concentrations of 4-OHT (also denoted by lab code CR 1447) for 5 days. Inhibition of proliferation was quantified by measuring the enzymatic cleavage of the tetrazolium salt WST-1 to formazan by cellular mitochondrial dehydrogenases as a readout for cell viability, wherein cell viability of treated cells is expressed as the percentage (%) of untreated controls containing only the solvent in appropriate concentrations.
Cells were grown and subcultured in Endothelial Cell Growth medium (EGM) for 3 and 5 days, respectively.

HUVEC cells [2] = assay: Tube migration (tube formation) assay of HUVEC cells on matrigel; conditions: HUVEC on matrigel (7 mg/ml), 10 μM/L, FIG. 4
Protocol: (§1) Briefly, human umbilical vein endothelial cells (in the following HUVEC) were freshly isolated out of human umbilical cords by methods known in the art and were used in the experiments from passage p4 up to passage p10 to prevent any artefacts originating from in vitro changes of the cells.
(§2) In all experiments, the C-19 steroid compound 4-OHT was added to the cells in the indicated concentration in EGM-2 medium (Lonza) in order to avoid any artefacts originating from exogenous factors contained in the medium.
After migration into the tissue of a scratch, HUVEC cells change their growth characteristics and form microvessels. This effect can be assessed microscopically.
HUVEC cells were seeded on matrigel (7 mg/ml). Cell suspensions as well as gels containing 10 μM/L 4-OHT were added upon seeding, It was allowed to form branching points during adherence onto this surface mimicking basal membrane character. Tube formation was analyzed microscopically after 12 and 48 hours.
When the human endothelial cells were subjected onto matrigel pads, branching points as one marker of tube formation are inhibited by 4-OHT as compared to untreated controls (red arrows).

HUVEC cells [3] = assay: Transwell migration assay of HUVEC cells with VEGF as attractant; conditions: 48 hrs, VEGF as attractant in lower chamber, compared to control, FIG. 2B
Protocol: as §1, §2
A prerequisite of angiogenesis is the capability of endothelial cells to migrate into the tissue. This process is observed in wound healing and also in the process of tumor growth. Endothelial cells migrate into the tissue along a gradient of factors such as VEGF. This behavior can be studied in an in vitro model of migration using a transwell system, as e.g. apparent from FIG. 2A.
For studying the migration of HUVEC cells using the transwell system with PET-membranes having a 3 μm pore size (24-wells w/o fibronectin-coating), HUVEC cells in different cell numbers were placed in the upper compartment, whereas the attractant was placed in the lower compartment. The number of cells on the attractant site of the membrane was compared with the number of cells visible in a control system (buffer control) and with the attractant (VEGF) in the presence of 4-OHT. […]

HUVEC cells [4] = assay: Wound healing (scratch) assay of HUVEC cells; conditions: 10 μM, FIG. 3
Protocol: as §1, §2
Another method for studying cell migration is the wound healing (scratch) assay. This assay resembles the events occurring in an acute wound healing process. By release of factors from the wound area endothelial cells migrate into the scratch area, which shall resemble the process of healing and closure of the wound by vascularization and later scar formation.
In summary, HUVEC cells were seeded in a 12-well plate and allow to grow until reaching confluency. Subsequently, a scratch was set, thereby removing the cells within the scratch area. The cells were exposed to 10 μM of 4-OHT and the migration of endothelial cells into the scratch area was monitored microscopically using a schedule from 2 up to 48 hrs, depending on the individual experimental design. […]

Structure (SMILES): C[C@]12CC[C@H]3[C@@H](CCC4=C(O)C(=O)CC[C@@]43C)[C@@H]1CC[C@@H]2O [4-OHT, 4-hydroxytestosterone]
- growth inhibition (WST-1 cell viability vs untreated controls) (HUVEC cells [1]): highly significant
- tube formation of human endothelial cells (HUVEC cells [2]; analyzed after 12 and 48 hours): significantly inhibited
- branching of the cells (branching points as marker of tube formation) (HUVEC cells [2]; compared to untreated controls): markedly inhibited
- migration of cells into the membrane (transwell) (HUVEC cells [3]): significantly inhibits
- migration of HUVEC cells into the scratch area compared to untreated control cells (HUVEC cells [4]; after 24 h): clear reduction
- endothelial cell migration (wound-healing / scratch assay) (HUVEC cells [4]; monitored 2 up to 48 hrs): effectively inhibited
